According to ChEMBL document CHEMBL4739716, “Gpr139 receptor modulators” (2020):

Key:
[1] = molecular target: T1, Probable G-protein coupled receptor 139 (Rattus norvegicus, UniProt P0C0W8); experiment: Agonist activity at rat GPR139 expressed in CHO-K1 cells assessed as increase in calcium flux by calcium 5 dye based FLIPR assay; assay type: cell-based
T1 sequence (P0C0W8 whole entry): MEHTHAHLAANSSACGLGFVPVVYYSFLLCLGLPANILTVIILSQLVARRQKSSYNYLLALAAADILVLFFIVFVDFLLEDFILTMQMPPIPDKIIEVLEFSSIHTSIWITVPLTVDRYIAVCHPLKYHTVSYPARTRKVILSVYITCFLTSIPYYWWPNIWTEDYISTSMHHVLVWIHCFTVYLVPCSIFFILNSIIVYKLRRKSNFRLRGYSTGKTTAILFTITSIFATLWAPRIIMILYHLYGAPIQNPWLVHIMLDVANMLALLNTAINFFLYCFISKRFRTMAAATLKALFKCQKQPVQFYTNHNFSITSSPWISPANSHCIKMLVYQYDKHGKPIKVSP

[2] = molecular target: T2, Probable G-protein coupled receptor 139 (Rattus norvegicus) (UniProt P0C0W8); experiment: Agonist activity at rat GPR139 expressed in CHO-K1 cells assessed as increase in calcium flux by calcium 5 dye based FLIPR assay relative to JNJ63533054; assay type: cell-based
T2 sequence (whole entry): T1 sequence (P0C0W8 whole entry)

[3] = molecular target: T3, Probable G-protein coupled receptor 139 (Homo sapiens) (UniProt Q6DWJ6); experiment: Agonist activity at human GPR139 expressed in CHO-K1 cells assessed as increase in calcium flux by calcium 5 dye based FLIPR assay relative to JNJ63533054; assay type: functional, cell-based; details: filed as agonist
T3 sequence (whole entry): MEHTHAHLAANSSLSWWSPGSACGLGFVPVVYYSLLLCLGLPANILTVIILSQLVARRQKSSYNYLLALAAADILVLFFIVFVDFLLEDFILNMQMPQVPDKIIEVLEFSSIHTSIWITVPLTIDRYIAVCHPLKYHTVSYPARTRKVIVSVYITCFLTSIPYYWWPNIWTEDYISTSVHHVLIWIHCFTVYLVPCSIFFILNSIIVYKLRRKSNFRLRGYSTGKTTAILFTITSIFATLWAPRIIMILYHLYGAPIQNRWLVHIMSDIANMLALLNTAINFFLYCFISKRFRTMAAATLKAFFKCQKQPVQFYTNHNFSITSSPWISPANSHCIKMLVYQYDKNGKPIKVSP

[4] = molecular target: T4, Probable G-protein coupled receptor 139 (Homo sapiens, UniProt Q6DWJ6); experiment: Agonist activity at human GPR139 expressed in CHO-K1 cells assessed as increase in calcium flux by calcium 5 dye based FLIPR assay; assay type: functional, cell-based
T4 sequence (Q6DWJ6 whole entry): T3 sequence (whole entry)

[5] = molecular target: T4, Probable G-protein coupled receptor 139; experiment: Agonist activity at human GPR139 expressed in CHO-K1 cells assessed as induction of beta-arrestin 2 recruitment incubated for 90 mins by PathHunter assay; assay type: cell-based
[6] = molecular target: T3, Probable G-protein coupled receptor 139 (Homo sapiens); experiment: Agonist activity at human GPR139 expressed in CHO-K1 cells assessed as induction of beta-arrestin 2 recruitment incubated for 90 mins by PathHunter assay relative to JNJ63533054; assay type: cell-based

Compound	EC50 ([1]; cho-k1) [nM]	Emax [2] [%]	Emax [3] [%]	EC50 ([4]; cho-k1) [nM]	EC50 ([5]; cho-k1) [nM]	Emax ([6]; filed as agonist) [%]	EC50 [1] [nM]	Emax ([2]; filed as agonist) [%]	EC50 [4] [nM]	EC50 [5] [nM]	Emax [6] [%]
Cc1cnc2nn(CC(=O)N[C@@H](C)c3ccc(OC(F)(F)F)c(F)c3)c(=O)n2c1	10	25	> 80	1	1	50					
C[C@H](NC(=O)Cn1nc2cc(N3CCOCC3)ccn2c1=O)c1ccc(OC(F)(F)F)cc1	1		> 80	1		50		> 80		≥ 100	
Cc1cc(Cl)ccc1[C@H](C)NC(=O)Cn1nc2cccnn2c1=O	1		> 80	1		50		50		≥ 100	
Cc1cc([C@H](C)NC(=O)Cn2nc3cccnn3c2=O)ccc1Cl	1		> 80	1		50		> 80		≥ 100	
COc1cnn2c(=O)n(CC(=O)N[C@@H](C)c3ccc(Cl)c(F)c3)nc2c1			> 80		1	> 80	< 1	> 80	< 1		
C[C@H](NC(=O)Cn1nc2cc(NC3COC3)ccn2c1=O)c1ccc(Cl)c(F)c1			> 80	1	1	> 80	< 1	> 80			
C[C@H](NC(=O)Cn1nc2ccccn2c1=O)c1ccc(Cl)c(Cl)c1	1		> 80		1	> 80		> 80	< 1		
C[C@H](NC(=O)Cn1nc2cc(-c3ccccc3)ccn2c1=O)c1ccc(Cl)c(F)c1			> 80			> 80	< 1	> 80	< 1	< 1	
CC(NC(=O)Cn1nc2ccccn2c1=O)c1ncc(Cl)cc1F (centres undefined)		< 25	50				≥ 100		≥ 100	≥ 100	25
COc1ccn2c(=O)n(CC(=O)N[C@@H](C)c3c(C)cc(C)cc3C)nc2c1	10	25	50		10				≥ 100		25
Cc1cc(Cl)ccc1[C@H](C)NC(=O)Cn1nc2ncccn2c1=O		25	> 80	1		50	≥ 100			≥ 100	
C[C@H](NC(=O)Cn1nc2cc(N3CCC(O)CC3)ccn2c1=O)c1ccc(OC(F)(F)F)cc1	1		> 80	1				> 80		≥ 100	25
Cc1ccnc2nn(CC(=O)N[C@@H](C)c3ccc(Cl)c(F)c3)c(=O)n12	10		> 80		1	50		50	< 1		
C[C@H](NC(=O)Cn1nc2c(I)ccnn2c1=O)c1ccc(OC(F)(F)F)cc1	10		50					25	< 1	≥ 100	< 25
C[C@H](NC(=O)[C@@H](C)n1nc2ncccn2c1=O)c1ccc(Cl)c(F)c1	1		> 80	1	10	50		50			
COC1CCN(c2ccn3c(=O)n(CC(=O)N[C@@H](C)c4ccc(OC(F)(F)F)cc4)nc3c2)CC1	1		50	1		> 80		50		≥ 100	
O=C(Cn1nc2cccnn2c1=O)NC1(c2cccc(Cl)c2)CC1			50				≥ 100	50	≥ 100	≥ 100	< 25
C[C@H](NC(=O)Cn1nc2cc(Cl)ccn2c1=O)c1ccc(Cl)c(F)c1			> 80		1	> 80	< 1	> 80	< 1		

Other lines, results leading:

EC50 ([1]; cho-k1) [nM]	Emax [2] [%]	Emax [3] [%]	EC50 ([4]; cho-k1) [nM]	EC50 ([5]; cho-k1) [nM]	Emax ([6]; filed as agonist) [%]	EC50 [1] [nM]	Emax ([2]; filed as agonist) [%]	EC50 [4] [nM]	EC50 [5] [nM]	Emax [6] [%]	Compound
		> 80			50	< 1	> 80	< 1	< 1		Cc1ccc([C@H](C)NC(=O)Cn2nc3c(NCC(F)F)cccn3c2=O)cc1
10		> 80	1				50		≥ 100	25	C[C@H](NC(=O)Cn1nc2cccnn2c1=O)c1ccc(Cl)cc1
		> 80		1	> 80	< 1	> 80	< 1			C[C@H](NC(=O)Cn1nc2ccc(F)cn2c1=O)c1ccc(Cl)c(F)c1
1	25	> 80	1	10	50						C[C@H](NC(=O)Cn1nc2ccccn2c1=O)c1ccc(C(F)(F)F)cc1
		> 80		1	50	< 1	50	< 1			Cc1ccc([C@H](C)NC(=O)Cn2nc3ccc(C)cn3c2=O)cc1
1		> 80		1	> 80		> 80	< 1			Cc1ccc([C@H](C)NC(=O)Cn2nc3ccccn3c2=O)cc1Cl
		> 80		1	50	< 1	50	< 1			C[C@H](NC(=O)Cn1nc2ccc(F)cn2c1=O)c1ccc(Cl)cc1
		> 80		1	50	< 1	50	< 1			Cc1ccc([C@H](C)NC(=O)Cn2nc3ccc(F)cn3c2=O)cc1F
1		> 80		1	50		50	< 1			C[C@H](NC(=O)Cn1nc2ccc(F)cn2c1=O)c1ccc(OC(F)(F)F)cc1
		> 80		1	> 80	< 1	> 80	< 1			CNc1cccn2c(=O)n(CC(=O)N[C@@H](C)c3ccc(C)cc3)nc12
	25	50	10			≥ 100			≥ 100	< 25	C[C@H](NC(=O)Cn1nc2ccccn2c1=O)c1ccc(F)cc1
